# Results reported in patent publication US20100092429A1, “Composition” (Danisco A/S, priority 2006, published 2010).
# Like-named read-outs stand apart in the source and are kept apart here.
# What was measured:
# [1] = tested on: Lactobacilli and S. thermophilus; assay: Growth on single carbohydrates, summary for Lactobacilli and S. thermophilus; type: cell-based; conditions: summary in words of Tables 7 and 8
# [2] = tested on: Bifidobacterium lactis BI-04; type: cell-based; conditions: 1 w/v-% carbohydrate, 37° C.
compound,measurement,setting,value
"OC[C@H]1O[C@H](O)[C@H](O)[C@@H](O)[C@@H]1O [Glucose, Alpha-D-Glucose]",fermentation of the carbohydrate by Lactobacilli and S. thermophilus,[1],all these bacteria fermented with glucose
same,absorbance (OD 600 nm),"[2]; Table 3 test, time 0 h",0.345
same,absorbance (OD 600 nm),"[2]; Table 3 test, time 0.5 h",0.3508
same,absorbance (OD 600 nm),"[2]; Table 3 test, time 1 h",0.3557
same,absorbance (OD 600 nm),"[2]; Table 3 test, time 1.5 h",0.3612
same,absorbance (OD 600 nm),"[2]; Table 3 test, time 2 h",0.366
same,absorbance (OD 600 nm),"[2]; Table 3 test, time 2.5 h",0.3717
same,absorbance (OD 600 nm),"[2]; Table 3 test, time 3 h",0.3794
same,absorbance (OD 600 nm),"[2]; Table 3 test, time 3.5 h",0.3884
same,absorbance (OD 600 nm),"[2]; Table 3 test, time 4 h",0.4001
same,absorbance (OD 600 nm),"[2]; Table 3 test, time 4.5 h",0.4149
same,absorbance (OD 600 nm),"[2]; Table 3 test, time 5 h",0.4363
same,absorbance (OD 600 nm),"[2]; Table 3 test, time 5.5 h",0.4576
same,absorbance (OD 600 nm),"[2]; Table 3 test, time 6 h",0.4843
same,absorbance (OD 600 nm),"[2]; Table 3 test, time 6.5 h",0.5156
same,absorbance (OD 600 nm),"[2]; Table 3 test, time 7 h",0.549
same,absorbance (OD 600 nm),"[2]; Table 3 test, time 7.5 h",0.5855
same,absorbance (OD 600 nm),"[2]; Table 3 test, time 8 h",0.6269
same,absorbance (OD 600 nm),"[2]; Table 3 test, time 8.5 h",0.6688
same,absorbance (OD 600 nm),"[2]; Table 3 test, time 9 h",0.7126
same,absorbance (OD 600 nm),"[2]; Table 3 test, time 9.5 h",0.7528
same,absorbance (OD 600 nm),"[2]; Table 3 test, time 10 h",0.7957
same,absorbance (OD 600 nm),"[2]; Table 3 test, time 10.5 h",0.8301
same,absorbance (OD 600 nm),"[2]; Table 3 test, time 11 h",0.8645
same,absorbance (OD 600 nm),"[2]; Table 3 test, time 11.5 h",0.897
same,absorbance (OD 600 nm),"[2]; Table 3 test, time 12 h",0.927
same,absorbance (OD 600 nm),"[2]; Table 3 test, time 12.5 h",0.9517
same,absorbance (OD 600 nm),"[2]; Table 3 test, time 13 h",0.9725
same,absorbance (OD 600 nm),"[2]; Table 3 test, time 13.5 h",0.9899
same,absorbance (OD 600 nm),"[2]; Table 3 test, time 14 h",1.0031
same,absorbance (OD 600 nm),"[2]; Table 3 test, time 14.5 h",1.0267
same,absorbance (OD 600 nm),"[2]; Table 3 test, time 15 h",1.0406
same,absorbance (OD 600 nm),"[2]; Table 3 test, time 15.5 h",1.05
same,absorbance (OD 600 nm),"[2]; Table 3 test, time 16 h",1.063
same,absorbance (OD 600 nm),"[2]; Table 3 test, time 16.5 h",1.0769
same,absorbance (OD 600 nm),"[2]; Table 3 test, time 17 h",1.0841
same,absorbance (OD 600 nm),"[2]; Table 3 test, time 17.5 h",1.1062
same,absorbance (OD 600 nm),"[2]; Table 3 test, time 18 h",1.1201
same,absorbance (OD 600 nm),"[2]; Table 3 test, time 18.5 h",1.1494
same,absorbance (OD 600 nm),"[2]; Table 3 test, time 19 h",1.1729
same,absorbance (OD 600 nm),"[2]; Table 3 test, time 19.5 h",1.1942
same,absorbance (OD 600 nm),"[2]; Table 3 test, time 20 h",1.2233
same,absorbance (OD 600 nm),"[2]; Table 3 test, time 20.5 h",1.2352
same,absorbance (OD 600 nm),"[2]; Table 3 test, time 21 h",1.27
same,absorbance (OD 600 nm),"[2]; Table 3 test, time 21.5 h",1.2882
same,absorbance (OD 600 nm),"[2]; Table 3 test, time 22 h",1.2935
same,absorbance (OD 600 nm),"[2]; Table 3 test, time 22.5 h",1.312
same,absorbance (OD 600 nm),"[2]; Table 3 test, time 23 h",1.3311
same,absorbance (OD 600 nm),"[2]; Table 3 test, time 23.5 h",1.3389
same,absorbance (OD 600 nm),"[2]; Table 3 test, time 24 h",1.3477
same,absorbance (OD 600 nm),"[2]; Table 4 further test, time 0 h",0.358
same,absorbance (OD 600 nm),"[2]; Table 4 further test, time 0.5 h",0.3615
same,absorbance (OD 600 nm),"[2]; Table 4 further test, time 1 h",0.3671
same,absorbance (OD 600 nm),"[2]; Table 4 further test, time 1.5 h",0.3772
same,absorbance (OD 600 nm),"[2]; Table 4 further test, time 2 h",0.3899
same,absorbance (OD 600 nm),"[2]; Table 4 further test, time 2.5 h",0.407
same,absorbance (OD 600 nm),"[2]; Table 4 further test, time 3 h",0.4301
same,absorbance (OD 600 nm),"[2]; Table 4 further test, time 3.5 h",0.4552
same,absorbance (OD 600 nm),"[2]; Table 4 further test, time 4 h",0.4845
same,absorbance (OD 600 nm),"[2]; Table 4 further test, time 4.5 h",0.5215
same,absorbance (OD 600 nm),"[2]; Table 4 further test, time 5 h",0.5712
same,absorbance (OD 600 nm),"[2]; Table 4 further test, time 5.5 h",0.6208
same,absorbance (OD 600 nm),"[2]; Table 4 further test, time 6 h",0.6769
same,absorbance (OD 600 nm),"[2]; Table 4 further test, time 6.5 h",0.7519
same,absorbance (OD 600 nm),"[2]; Table 4 further test, time 7 h",0.824
same,absorbance (OD 600 nm),"[2]; Table 4 further test, time 7.5 h",0.8944
same,absorbance (OD 600 nm),"[2]; Table 4 further test, time 8 h",0.9606
same,absorbance (OD 600 nm),"[2]; Table 4 further test, time 8.5 h",1.0277
same,absorbance (OD 600 nm),"[2]; Table 4 further test, time 9 h",1.0871
same,absorbance (OD 600 nm),"[2]; Table 4 further test, time 9.5 h",1.1209
same,absorbance (OD 600 nm),"[2]; Table 4 further test, time 10 h",1.1556
same,absorbance (OD 600 nm),"[2]; Table 4 further test, time 10.5 h",1.189
same,absorbance (OD 600 nm),"[2]; Table 4 further test, time 11 h",1.2217
same,absorbance (OD 600 nm),"[2]; Table 4 further test, time 11.5 h",1.2528
same,absorbance (OD 600 nm),"[2]; Table 4 further test, time 12 h",1.2826
same,absorbance (OD 600 nm),"[2]; Table 4 further test, time 12.5 h",1.3101
same,absorbance (OD 600 nm),"[2]; Table 4 further test, time 13 h",1.3368
same,absorbance (OD 600 nm),"[2]; Table 4 further test, time 13.5 h",1.3586
same,absorbance (OD 600 nm),"[2]; Table 4 further test, time 14 h",1.3745
same,absorbance (OD 600 nm),"[2]; Table 4 further test, time 14.5 h",1.388
same,absorbance (OD 600 nm),"[2]; Table 4 further test, time 15 h",1.4068
same,absorbance (OD 600 nm),"[2]; Table 4 further test, time 15.5 h",1.4166
same,absorbance (OD 600 nm),"[2]; Table 4 further test, time 16 h",1.43
same,absorbance (OD 600 nm),"[2]; Table 4 further test, time 16.5 h",1.4441
same,absorbance (OD 600 nm),"[2]; Table 4 further test, time 17 h",1.4486
same,absorbance (OD 600 nm),"[2]; Table 4 further test, time 17.5 h",1.4526
same,absorbance (OD 600 nm),"[2]; Table 4 further test, time 18 h",1.4654
same,absorbance (OD 600 nm),"[2]; Table 4 further test, time 18.5 h",1.4724
same,absorbance (OD 600 nm),"[2]; Table 4 further test, time 19 h",1.472
same,absorbance (OD 600 nm),"[2]; Table 4 further test, time 19.5 h",1.4796
same,absorbance (OD 600 nm),"[2]; Table 4 further test, time 20 h",1.4864
same,absorbance (OD 600 nm),"[2]; Table 4 further test, time 20.5 h",1.491
same,absorbance (OD 600 nm),"[2]; Table 4 further test, time 21 h",1.4946
same,absorbance (OD 600 nm),"[2]; Table 4 further test, time 21.5 h",1.4988
same,absorbance (OD 600 nm),"[2]; Table 4 further test, time 22 h",1.5015
same,absorbance (OD 600 nm),"[2]; Table 4 further test, time 22.5 h",1.5046
same,absorbance (OD 600 nm),"[2]; Table 4 further test, time 23 h",1.5061
same,absorbance (OD 600 nm),"[2]; Table 4 further test, time 23.5 h",1.5092
same,absorbance (OD 600 nm),"[2]; Table 4 further test, time 24 h",1.5092
